These results are taken from patent US20260042753A1 (Merck Patent GmbH, priority 2019, published 2026).

SMILES strings stand for the structures.

One test addresses c-Kit(V654A) (Homo sapiens, UniProt P10721, V654A). Nature of the test: c-Kit(V654A) assay. Format: biochemical. The settings on record: Table 1; 200 μM ATP. Summed up:
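Radiometric filter-binding read-out: after 3% phosphoric acid stop, peptide-incorporated 33P on filtermat scintillation-counted. Enzyme: human c-Kit V654A, residues 544–end, N-terminal GST fusion.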

For test [1], the target named is mutant cKIT (560-576 and V654A) in GIST430/654 cell line (Homo sapiens (Human), UniProt P10721, DEL560-576/V654A). Kind of test: Cellular testing of cKIT mutant inhibitors: phospho-Y307-cKIT Luminex assay in GIST430/654 cells. The format is cell-based. The note with it: Table 1; cKIT autophosphorylation, compounds 45 min; read-out: GIST 430/654 IC50. In outline:
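Autophosphorylation of mutant cKIT at Y307 was quantified by a Luminex bead sandwich assay (total-cKIT capture, phosphospecific detection) after 45 min compound exposure in GIST430/654 cells, cultured in medium containing 100 nM imatinib. Signals were normalised to solvent (0.3% DMSO) controls and dose-response curves fitted for IC50.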

mutant cKIT (560-576 and V654A) in GIST430/654 cell line, sequence (P10721 other isoform, or with tags, fused parts or gaps V654A/del 1-25/del 560-576 limits assumed): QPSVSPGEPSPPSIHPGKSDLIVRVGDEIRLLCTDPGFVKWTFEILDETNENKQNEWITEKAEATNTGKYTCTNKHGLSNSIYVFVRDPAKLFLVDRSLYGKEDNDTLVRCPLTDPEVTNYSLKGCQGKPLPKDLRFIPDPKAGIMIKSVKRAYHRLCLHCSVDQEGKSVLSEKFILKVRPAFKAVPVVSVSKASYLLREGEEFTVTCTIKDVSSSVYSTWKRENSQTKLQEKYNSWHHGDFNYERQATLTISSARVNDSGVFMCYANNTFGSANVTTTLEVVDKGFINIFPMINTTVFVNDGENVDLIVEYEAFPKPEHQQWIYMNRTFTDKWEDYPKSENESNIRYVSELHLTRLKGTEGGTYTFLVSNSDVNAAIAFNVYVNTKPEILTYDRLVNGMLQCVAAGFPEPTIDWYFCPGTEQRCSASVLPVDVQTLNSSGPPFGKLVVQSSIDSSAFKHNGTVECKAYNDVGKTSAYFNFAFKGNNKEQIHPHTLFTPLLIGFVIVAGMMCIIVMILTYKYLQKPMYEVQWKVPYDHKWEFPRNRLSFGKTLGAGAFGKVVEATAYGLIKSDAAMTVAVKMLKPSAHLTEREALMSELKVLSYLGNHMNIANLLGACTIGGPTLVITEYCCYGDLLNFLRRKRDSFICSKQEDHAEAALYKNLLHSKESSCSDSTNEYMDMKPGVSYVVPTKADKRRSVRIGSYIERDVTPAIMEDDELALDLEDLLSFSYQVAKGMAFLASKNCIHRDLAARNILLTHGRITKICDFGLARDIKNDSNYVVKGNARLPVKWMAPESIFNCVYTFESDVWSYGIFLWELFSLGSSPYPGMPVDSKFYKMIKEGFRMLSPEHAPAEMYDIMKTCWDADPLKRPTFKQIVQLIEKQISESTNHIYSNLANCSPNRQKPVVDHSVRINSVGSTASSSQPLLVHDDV

Turning to `O=C(c1ccc(-c2cc(-c3n[nH]c4cc(OCCO)c(F)cc34)on2)cc1)N1CC(N2CCOCC2)C1` [A209, 2-{[5-fluoro-3-(3-{4-[3-(morpholin-4-yl)azetidine-1-carbonyl]phenyl}-1,2-oxazol-5-yl)-1H-indazol-6-yl]oxy}ethan-1-ol], the IC50 amounted to 0.86 nM against c-Kit(V654A) and 120 nM in test [1].

With `COCCOc1cc2[nH]nc(-c3cc(-c4ccc(C(=O)NCc5nc6ccccc6[nH]5)cc4)no3)c2cc1F` [A156, N-[(1H-1,3-benzodiazol-2-yl)methyl]-4-{5-[5-fluoro-6-(2-methoxyethoxy)-1H-indazol-3-yl]-1,2-oxazol-3-yl}benzamide], the IC50 was 5.2 nM against c-Kit(V654A) and 350 nM in test [1].

For `COCCOc1cc2[nH]nc(-c3cc(-c4ccc(C(=O)NCC(C)(C)N5CCOCC5)cc4)no3)c2cc1F` [A164, 4-{5-[5-fluoro-6-(2-methoxyethoxy)-1H-indazol-3-yl]-1,2-oxazol-3-yl}-N-[2-methyl-2-(morpholin-4-yl)propyl]benzamide], the IC50 against c-Kit(V654A) was determined as 1.5 nM; in test [1], 130 nM.

For `COCCOc1cc2[nH]nc(-c3cc(-c4ccc(C(=O)N5Cc6ccncc6C5)cc4)no3)c2cc1F` [A183, 5-fluoro-6-(2-methoxyethoxy)-3-[3-(4-{1H,2H,3H-pyrrolo[3,4-c]pyridine-2-carbonyl}phenyl)-1,2-oxazol-5-yl]-1H-indazole], the IC50 against c-Kit(V654A) amounted to 0.55 nM; in test [1], 18 nM.

As to `COCCOc1cc2[nH]nc(-c3cc(-c4ccc(C(=O)N5CC(N6CCO[C@@H](C)C6)C5)cc4)no3)c2cc1F` [A210, 5-fluoro-6-(2-methoxyethoxy)-3-[3-(4-{3-[(2S)-2-methylmorpholin-4-yl]azetidine-1-carbonyl}phenyl)-1,2-oxazol-5-yl]-1H-indazole], the IC50 at c-Kit(V654A) worked out at 0.8 nM; in test [1], 30 nM.

As to `COCCOc1cc2[nH]nc(-c3cc(-c4ccc(C(=O)N5CCC[C@H]5CNS(C)(=O)=O)cc4)no3)c2cc1F` [A90, N-{[(2S)-1-(4-{5-[5-fluoro-6-(2-methoxyethoxy)-1H-indazol-3-yl]-1,2-oxazol-3-yl}benzoyl)pyrrolidin-2-yl]methyl}methanesulfonamide], the IC50 at c-Kit(V654A) came out at 0.47 nM; in test [1], 120 nM.

For `COCCOc1cc2[nH]nc(-c3cc(-c4ccc(C(=O)N(C)C5CC5)cc4)no3)c2cc1F` [A31, N-cyclopropyl-4-{5-[5-fluoro-6-(2-methoxyethoxy)-1H-indazol-3-yl]-1,2-oxazol-3-yl}-N-methylbenzamide], the IC50 is 1.1 nM at c-Kit(V654A) and 35 nM in test [1].

As to `COCCOc1cc2[nH]nc(-c3cc(-c4ccc(C(=O)N5CCC56COC6)c(C)c4)no3)c2cc1F` [A169, (4-{5-[5-fluoro-6-(2-methoxy-ethoxy)-1H-indazol-3-yl]-isoxazol-3-yl}-2-methyl-phenyl)-(6-oxa-1-aza-spiro[3.3]hept-1-yl)-methanone], the values for the IC50 (at c-Kit(V654A); in test [1]) were 1.2 nM and 44 nM, respectively.

Turning to `COCCOc1cc2[nH]nc(-c3cc(-c4ccc(Oc5ccccn5)cc4)no3)c2cc1F` [A143, 5-fluoro-6-(2-methoxyethoxy)-3-{3-[4-(pyridin-2-yloxy)phenyl]-1,2-oxazol-5-yl}-1H-indazole], the results for the IC50 (on c-Kit(V654A); in test [1]) were 18 nM and 860 nM, respectively.

With `COCCOc1cc2[nH]nc(-c3cc(-c4ccc(C(=O)N5CC(C)(N)C5)cc4)no3)c2cc1F` [A56, 1-(4-{5-[5-fluoro-6-(2-methoxyethoxy)-1H-indazol-3-yl]-1,2-oxazol-3-yl}benzoyl)-3-methylazetidin-3-amine], the IC50 on c-Kit(V654A) came out at 1.6 nM; in test [1] it was 170 nM.

As for `COCCOc1cc2[nH]nc(-c3cc(-c4ccc(C(=O)N5CC(c6cnn(C)c6)C5)cc4)no3)c2cc1F` [A218, 5-fluoro-6-(2-methoxyethoxy)-3-(3-{4-[3-(1-methyl-1H-pyrazol-4-yl)azetidine-1-carbonyl]phenyl}-1,2-oxazol-5-yl)-1H-indazole], the IC50 was found to be 0.62 nM against c-Kit(V654A) and 47 nM in test [1].

Take `COCCOc1cc2[nH]nc(-c3cc(-c4ccc(C(=O)N5CCC[C@@H]5CO)nc4)no3)c2cc1F` [A62, (5-{5-[5-fluoro-6-(2-methoxy-ethoxy)-1H-indazol-3-yl]-isoxazol-3-yl}-pyridin-2-yl)-((R)-2-hydroxymethyl-pyrrolidin-1-yl)-methanone]: the IC50 was determined as 5.6 nM at c-Kit(V654A) and 450 nM in test [1].

Take `COCCOc1cc2[nH]nc(-c3cc(-c4ccc(N=S(C)(C)=O)cc4)no3)c2cc1F` [A47, [(4-{5-[5-fluoro-6-(2-methoxyethoxy)-1H-indazol-3-yl]-1,2-oxazol-3-yl}phenyl)imino]dimethyl-lambda6-sulfanone]: the IC50 against c-Kit(V654A) was found to be 2.4 nM; in test [1], 77 nM.

Regarding `COCCOc1cc2[nH]nc(-c3cc(-c4ccc(C(=O)N5CC[C@@H]5CO)cc4)no3)c2cc1F` [A97, [(2R)-1-(4-{5-[5-fluoro-6-(2-methoxyethoxy)-1H-indazol-3-yl]-1,2-oxazol-3-yl}benzoyl)azetidin-2-yl]methanol], the results for the IC50 (at c-Kit(V654A); in test [1]) were 0.97 nM and 41 nM, respectively.

Regarding `COCCOc1cc2[nH]nc(-c3cc(-c4ccc(C(=O)N5CC(F)C5)cc4)no3)c2cc1F` [A26, 5-fluoro-3-{3-[4-(3-fluoroazetidine-1-carbonyl)phenyl]-1,2-oxazol-5-yl}-6-(2-methoxyethoxy)-1H-indazole], the results for the IC50 (at c-Kit(V654A); in test [1]) were 2.1 nM and 45 nM, respectively.

With `COCCOc1cc2[nH]nc(-c3cc(-c4ccc(C(=O)N5CCC6(CC5)CN(C)C6)cc4)no3)c2cc1F` [A176, 7-(4-{5-[5-fluoro-6-(2-methoxyethoxy)-1H-indazol-3-yl]-1,2-oxazol-3-yl}benzoyl)-2-methyl-2,7-diazaspiro[3.5]nonane], the IC50 against c-Kit(V654A) came out at 2.6 nM; in test [1] it was 320 nM.

Regarding `COC(CO)COc1cc2[nH]nc(-c3cc(-c4ccc(C(=O)N(C)C)cc4)no3)c2cc1F` (stereo not shown) [A49, 4-{5-[5-fluoro-6-(3-hydroxy-2-methoxypropoxy)-1H-indazol-3-yl]-1,2-oxazol-3-yl}-N,N-dimethylbenzamide], the IC50 at c-Kit(V654A) is 1.9 nM; in test [1] it was 500 nM.

`COCCOc1cc2[nH]nc(-c3cc(-c4ccc(C(=O)N5C[C@H]6C[C@@H]5CO6)cc4)no3)c2cc1F` [A163, 5-fluoro-6-(2-methoxyethoxy)-3-(3-{4-[(1R,4R)-2-oxa-5-azabicyclo[2.2.1]heptane-5-carbonyl]phenyl}-1,2-oxazol-5-yl)-1H-indazole]: the IC50 at c-Kit(V654A) stood at 0.54 nM; in test [1] it was 38 nM.

Regarding `COCCOc1cc2[nH]nc(-c3cc(-c4ccc(C(=O)N5CC(N6CCOCC6)C5)cc4)no3)c2cc1Cl` [A64, (4-{5-[5-chloro-6-(2-methoxy-ethoxy)-1H-indazol-3-yl]-isoxazol-3-yl}-phenyl)-(3-morpholin-4-yl-azetidin-1-yl)-methanone], the IC50 against c-Kit(V654A) turned out to be 0.53 nM; in test [1] it was 32 nM.

For the compound `COCCOc1cc2[nH]nc(-c3cc(-c4ccc(-n5ncccc5=O)cc4)no3)c2cc1F` [A142, 2-(4-{5-[5-fluoro-6-(2-methoxyethoxy)-1H-indazol-3-yl]-1,2-oxazol-3-yl}phenyl)-2,3-dihydropyridazin-3-one], the IC50 came to 6 nM on c-Kit(V654A) and 75 nM in test [1].
